Our source for the TGI values is PubChem BioAssay (NCI).

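How tested: cells in 96-well plates exposed to compound for 48 hours at five concentrations. TGI is the concentration that stops growth completely.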 A value given as a limit tells only on which side of the number the result lay.

Some test systems named below: HOP-62 NSCLC; RXF 393 renal; NCI-H226 lung; LOX IMVI melanoma; 786-0 renal; HCC-2998 colon; SF-295 CNS; KM12 colon; HT29 colon; SNB-19 CNS; TK-10 renal; EKVX NSCLC; COLO 205 colon; UACC-62 melanoma; U251 CNS; MOLT-4 leukemia; SF-539 CNS; OVCAR-8 ovarian.
Common to all, as to assay: inhibition of tumour cell growth, NCI panel, 48 h

`Cc1csc(=S)n1OC(=O)NC1CCCCC1`: the TGI in the assay on HOP-62 NSCLC is > 100 µM; in the assay on RXF 393 renal it was > 100 µM; with NCI-H226 lung, > 100 µM; in the assay with LOX IMVI melanoma it was > 100 µM; in the assay on 786-0 renal, > 50 µM; with HCC-2998 colon, > 100 µM. For the same compound, the TGI with SF-295 CNS was > 100 µM; in the assay on KM12 colon it was > 100 µM; in the assay with HT29 colon, > 95.5 µM; with SNB-19 CNS it was > 100 µM; in the assay with TK-10 renal, > 100 µM; in the assay on EKVX NSCLC it was > 100 µM. Besides, the TGI with COLO 205 colon was > 40.2 µM; in the assay on UACC-62 melanoma, > 67.2 µM; with U251 CNS, > 100 µM; with MOLT-4 leukemia it was > 29.4 µM; in the assay with SF-539 CNS it was > 100 µM; in the assay with OVCAR-8 ovarian, > 100 µM.
For `COc1cc(Cn2c3ccccc3c3cc(C)c4c(c32)C=CC(C)(CCC=C(C)C)O4)cc2c1[nH]c1ccccc12` (centres undefined), the TGI with HOP-62 NSCLC, in the assay on RXF 393 renal, in the assay with LOX IMVI melanoma, in the assay with 786-0 renal, in the assay on HCC-2998 colon and in the assay with SF-295 CNS was > 100 µM in each case. For the same compound, the TGI with KM12 colon, in the assay with HT29 colon, in the assay with SNB-19 CNS, in the assay on TK-10 renal, in the assay with EKVX NSCLC and with COLO 205 colon was > 100 µM each time. Moreover, the TGI with UACC-62 melanoma, in the assay with U251 CNS, in the assay on MOLT-4 leukemia, in the assay with SF-539 CNS and in the assay on OVCAR-8 ovarian was > 100 µM each time.
Regarding `CSc1ccc(C2OC(=O)c3ccccc32)c2ccccc12` (centres undefined), the TGI in the assay with HOP-62 NSCLC, with RXF 393 renal, in the assay with LOX IMVI melanoma, in the assay on 786-0 renal, in the assay on HCC-2998 colon and in the assay with SF-295 CNS was > 100 µM in each case. The TGI in the assay with KM12 colon, in the assay with HT29 colon, in the assay with SNB-19 CNS, in the assay on EKVX NSCLC, with COLO 205 colon and in the assay with UACC-62 melanoma was > 100 µM in each case. Further, the TGI in the assay on U251 CNS, in the assay on MOLT-4 leukemia, in the assay on SF-539 CNS and with OVCAR-8 ovarian was > 100 µM in each case.
As for `Cc1[nH]ccc2c1[nH]c1cc(=O)ccc12`, the TGI in the assay on HOP-62 NSCLC, in the assay on RXF 393 renal, in the assay with NCI-H226 lung, with LOX IMVI melanoma, with 786-0 renal and with HCC-2998 colon was > 100 µM each time. Further, the TGI with SF-295 CNS, in the assay on KM12 colon, with HT29 colon, in the assay on SNB-19 CNS, with TK-10 renal and in the assay on EKVX NSCLC was > 100 µM throughout. In addition, the TGI in the assay with COLO 205 colon is > 100 µM; in the assay on UACC-62 melanoma it was > 100 µM; in the assay with U251 CNS, > 100 µM; in the assay with MOLT-4 leukemia, 85.9 µM; in the assay on SF-539 CNS, > 100 µM; in the assay with OVCAR-8 ovarian it was > 100 µM.
For the compound `O=C(COc1ccc2c(=O)cc(-c3ccccc3)oc2c1)N1CCN(c2ccccc2)CC1`, the TGI in the assay with HOP-62 NSCLC, in the assay with RXF 393 renal, with NCI-H226 lung, in the assay with LOX IMVI melanoma, in the assay with 786-0 renal and in the assay with HCC-2998 colon was > 100 µM in each case. Besides, the TGI in the assay with SF-295 CNS, in the assay with KM12 colon, in the assay on SNB-19 CNS, in the assay with TK-10 renal, in the assay with EKVX NSCLC and in the assay with COLO 205 colon was > 100 µM throughout. Moreover, the TGI in the assay on UACC-62 melanoma, in the assay on U251 CNS, in the assay with MOLT-4 leukemia, in the assay with SF-539 CNS and in the assay with OVCAR-8 ovarian was > 100 µM each time.
`O=C1C(Br)=CC2(C=C1Br)CCNC1=C2C(=O)c2ccccc2C1=O`: the TGI in the assay on HOP-62 NSCLC was 30.7 µM; in the assay on LOX IMVI melanoma it was 17.2 µM; with 786-0 renal, 29.5 µM; in the assay on SF-295 CNS, 33.2 µM; in the assay on KM12 colon, 23.4 µM; in the assay on HT29 colon it was > 100 µM. The TGI in the assay with TK-10 renal was 83.4 µM; in the assay with EKVX NSCLC, 99.1 µM; with COLO 205 colon, 15.9 µM; in the assay with UACC-62 melanoma, 29.6 µM; in the assay on MOLT-4 leukemia it was 22.7 µM; with OVCAR-8 ovarian, 98 µM.
For `Nc1ccn(CCNCCn2cnc3nc(N)[nH]c(=O)c32)c(=O)n1`, the TGI in the assay with HOP-62 NSCLC, in the assay on RXF 393 renal, with NCI-H226 lung, in the assay on LOX IMVI melanoma, in the assay on 786-0 renal and in the assay on HCC-2998 colon was > 100 µM throughout. The TGI in the assay with SF-295 CNS, in the assay on KM12 colon, in the assay with HT29 colon, in the assay on SNB-19 CNS, in the assay with TK-10 renal and in the assay on EKVX NSCLC was > 100 µM in each case. The TGI with COLO 205 colon, with U251 CNS, in the assay with SF-539 CNS and in the assay on OVCAR-8 ovarian was > 100 µM in each case.
As to `Cn1cnc(CCc2ccccc2)n1`, the TGI in the assay with HOP-62 NSCLC, in the assay with RXF 393 renal, in the assay on NCI-H226 lung, in the assay on LOX IMVI melanoma, in the assay on 786-0 renal and with SF-295 CNS was > 100 µM throughout. The TGI in the assay with KM12 colon, with HT29 colon, in the assay with TK-10 renal, with COLO 205 colon, with UACC-62 melanoma and in the assay with U251 CNS was > 100 µM in each case. In addition, the TGI in the assay with MOLT-4 leukemia, in the assay on SF-539 CNS and with OVCAR-8 ovarian was > 100 µM in each case.
